Data published in ChEMBL document CHEMBL3885861, “Open TG-GATES”.

Species on record: Rattus norvegicus
Assay: Open TG-GATES - Regimen: Daily Repeat
Assay type: toxicity, organism-based, Sprague-Dawley
Parameters: regimen Daily Repeat, gender Male, age 6 weeks
Details: in vivo, po, 100 mg/kg, route gavage, dose level Middle; for APTT / Bas / Eos / Fbg / Hb / Ht / Lym / MCH / MCHC / MCV / Mono / Neu / PT / Plat / RBC / Ret / WBC: tissue Blood; for KIDNEY_L / KIDNEY_R / KIDNEY_TOTAL: tissue Kidney; for LIVER: tissue Liver; for A/G / ALP / ALT / AST / BUN / CRE / Ca / Cl / DBIL / GLC / IP / K / LDH / Na / PL / RALB / TBIL / TC / TG / TP / gamma-GTP: tissue Plasma

ClC(Cl)(Cl)Cl [CARBON TETRACHLORIDE]
TERMINAL_BW (72 h, time 3 day): 216.4 g
APTT (72 h, time 3 day): 20.1 s
Bas (72 h, time 3 day): 0%
Eos (72 h, time 3 day): 1%
Fbg (72 h, time 3 day): 220 mg/dL
Hb (72 h, time 3 day): 13.9 g/dL
Ht (72 h, time 3 day): 40.9%
Lym (72 h, time 3 day): 75%
MCH (72 h, time 3 day): 21.3 pg
MCHC (72 h, time 3 day): 34%
MCV (72 h, time 3 day): 62.6 fL
Mono (72 h, time 3 day): 3.4%
Neu (72 h, time 3 day): 19.6%
PT (72 h, time 3 day): 12.6 s
Plat (72 h, time 3 day): 123.3 x10_4/uL
RBC (72 h, time 3 day): 653.4 x10_4/ul
Ret (72 h, time 3 day): 5.6%
WBC (72 h, time 3 day): 95 x10_2/uL
KIDNEY_L (72 h, time 3 day): 0.9 g
KIDNEY_R (72 h, time 3 day): 0.9 g
KIDNEY_TOTAL (72 h, time 3 day): 1.8 g
LIVER (72 h, time 3 day): 10.9 g
A/G (72 h, time 3 day): 1.5
ALP (72 h, time 3 day): 1153 IU/L
ALT (72 h, time 3 day): 68.6 IU/L
AST (72 h, time 3 day): 164.4 IU/L
BUN (72 h, time 3 day): 13 mg/dL
CRE (72 h, time 3 day): 0.4 mg/dL
Ca (72 h, time 3 day): 10.9 mg/dL
Cl (72 h, time 3 day): 103.4 meq/L
DBIL (72 h, time 3 day): 0.066 mg/dL
GLC (72 h, time 3 day): 184.4 mg/dL
IP (72 h, time 3 day): 7.3 mg/dL
K (72 h, time 3 day): 4 meq/L
LDH (72 h, time 3 day): 279.4 IU/L
Na (72 h, time 3 day): 140 meq/L
PL (72 h, time 3 day): 132.2 mg/dL
RALB (72 h, time 3 day): 3.2 g/dL
TBIL (72 h, time 3 day): 0.1 mg/dL
TC (72 h, time 3 day): 61.6 mg/dL
TG (72 h, time 3 day): 30 mg/dL
TP (72 h, time 3 day): 5.4 g/dL
gamma-GTP (72 h, time 3 day): 1.4 IU/L
TERMINAL_BW ([…], time 7 day): 247.4 g
TERMINAL_BW ([…], time 14 day): 301.8 g
TERMINAL_BW ([…], time 28 day): 377.7 g
APTT ([…], time 7 day): 19.9 s
Bas ([…], time 7 day): 0%
Eos ([…], time 7 day): 1%
Fbg ([…], time 7 day): 229.6 mg/dL
Hb ([…], time 7 day): 13.9 g/dL
Ht ([…], time 7 day): 40.5%
Lym ([…], time 7 day): 83.4%
MCH ([…], time 7 day): 21.7 pg
MCHC ([…], time 7 day): 34.4%
MCV ([…], time 7 day): 63 fL
Mono ([…], time 7 day): 3%
Neu ([…], time 7 day): 12.8%
PT ([…], time 7 day): 12.1 s
Plat ([…], time 7 day): 112.3 x10_4/uL
RBC ([…], time 7 day): 642.2 x10_4/ul
Ret ([…], time 7 day): 5.8%
WBC ([…], time 7 day): 127.1 x10_2/uL
APTT ([…], time 14 day): 22.1 s
Bas ([…], time 14 day): 0%
Eos ([…], time 14 day): 0.8%
Fbg ([…], time 14 day): 217.4 mg/dL
Hb ([…], time 14 day): 14 g/dL
Ht ([…], time 14 day): 41.6%
Lym ([…], time 14 day): 80.2%
MCH ([…], time 14 day): 20.1 pg
MCHC ([…], time 14 day): 33.6%
MCV ([…], time 14 day): 59.6 fL
Mono ([…], time 14 day): 3.2%
Neu ([…], time 14 day): 16%
PT ([…], time 14 day): 12.2 s
Plat ([…], time 14 day): 113 x10_4/uL
RBC ([…], time 14 day): 699 x10_4/ul
Ret ([…], time 14 day): 4%
WBC ([…], time 14 day): 110.8 x10_2/uL
APTT ([…], time 28 day): 20.8 s
Bas ([…], time 28 day): 0%
Eos ([…], time 28 day): 0.6%
Fbg ([…], time 28 day): 209.4 mg/dL
Hb ([…], time 28 day): 14.7 g/dL
Ht ([…], time 28 day): 42.8%
Lym ([…], time 28 day): 78.4%
MCH ([…], time 28 day): 18.3 pg
MCHC ([…], time 28 day): 34.3%
MCV ([…], time 28 day): 53.4 fL
Mono ([…], time 28 day): 3.8%
Neu ([…], time 28 day): 16.8%
PT ([…], time 28 day): 12.5 s
Plat ([…], time 28 day): 111.2 x10_4/uL
RBC ([…], time 28 day): 801.8 x10_4/ul
Ret ([…], time 28 day): 3%
WBC ([…], time 28 day): 148.3 x10_2/uL
KIDNEY_L ([…], time 7 day): 1.1 g
KIDNEY_R ([…], time 7 day): 1.1 g
KIDNEY_TOTAL ([…], time 7 day): 2.2 g
KIDNEY_L ([…], time 14 day): 1.1 g
KIDNEY_R ([…], time 14 day): 1.2 g
KIDNEY_TOTAL ([…], time 14 day): 2.3 g
KIDNEY_L ([…], time 28 day): 1.3 g
KIDNEY_R ([…], time 28 day): 1.3 g
KIDNEY_TOTAL ([…], time 28 day): 2.6 g
LIVER ([…], time 7 day): 13.2 g
LIVER ([…], time 14 day): 15.1 g
LIVER ([…], time 28 day): 18.2 g
A/G ([…], time 7 day): 1.4
ALP ([…], time 7 day): 942.6 IU/L
ALT ([…], time 7 day): 53.4 IU/L
AST ([…], time 7 day): 113.4 IU/L
BUN ([…], time 7 day): 15.4 mg/dL
CRE ([…], time 7 day): 0.4 mg/dL
Ca ([…], time 7 day): 10.6 mg/dL
Cl ([…], time 7 day): 104.4 meq/L
DBIL ([…], time 7 day): 0.074 mg/dL
GLC ([…], time 7 day): 193.8 mg/dL
IP ([…], time 7 day): 7.6 mg/dL
K ([…], time 7 day): 4 meq/L
LDH ([…], time 7 day): 231.2 IU/L
Na ([…], time 7 day): 141 meq/L
PL ([…], time 7 day): 142.8 mg/dL
RALB ([…], time 7 day): 3.2 g/dL
TBIL ([…], time 7 day): 0.1 mg/dL
TC ([…], time 7 day): 63.4 mg/dL
TG ([…], time 7 day): 62.6 mg/dL
TP ([…], time 7 day): 5.5 g/dL
gamma-GTP ([…], time 7 day): 1.4 IU/L
A/G ([…], time 14 day): 1.6
ALP ([…], time 14 day): 1040.6 IU/L
ALT ([…], time 14 day): 106 IU/L
AST ([…], time 14 day): 165.4 IU/L
BUN ([…], time 14 day): 15.2 mg/dL
CRE ([…], time 14 day): 0.4 mg/dL
Ca ([…], time 14 day): 10.7 mg/dL
Cl ([…], time 14 day): 104 meq/L
DBIL ([…], time 14 day): 0.06 mg/dL
GLC ([…], time 14 day): 184.2 mg/dL
IP ([…], time 14 day): 7.6 mg/dL
K ([…], time 14 day): 3.8 meq/L
LDH ([…], time 14 day): 281.4 IU/L
Na ([…], time 14 day): 142 meq/L
PL ([…], time 14 day): 131.2 mg/dL
RALB ([…], time 14 day): 3.5 g/dL
TBIL ([…], time 14 day): 0.1 mg/dL
TC ([…], time 14 day): 64.4 mg/dL
TG ([…], time 14 day): 38.8 mg/dL
TP ([…], time 14 day): 5.7 g/dL
gamma-GTP ([…], time 14 day): 0.8 IU/L
A/G ([…], time 28 day): 1.4
ALP ([…], time 28 day): 760.2 IU/L
ALT ([…], time 28 day): 103.2 IU/L
AST ([…], time 28 day): 131 IU/L
BUN ([…], time 28 day): 16 mg/dL
CRE ([…], time 28 day): 0.5 mg/dL
Ca ([…], time 28 day): 10.3 mg/dL
Cl ([…], time 28 day): 102.6 meq/L
DBIL ([…], time 28 day): 0.072 mg/dL
GLC ([…], time 28 day): 203.6 mg/dL
IP ([…], time 28 day): 6.8 mg/dL
K ([…], time 28 day): 3.8 meq/L
LDH ([…], time 28 day): 390 IU/L
Na ([…], time 28 day): 140.8 meq/L
PL ([…], time 28 day): 122.8 mg/dL
RALB ([…], time 28 day): 3.4 g/dL
TBIL ([…], time 28 day): 0.1 mg/dL
TC ([…], time 28 day): 57 mg/dL
TG ([…], time 28 day): 32.2 mg/dL
TP ([…], time 28 day): 5.9 g/dL
gamma-GTP ([…], time 28 day): 1.2 IU/L
